The record followed here is ChEMBL document CHEMBL2380283, “Design and synthesis of thiophene dihydroisoquinolines as novel BACE1 inhibitors” (Bioorg Med Chem Lett, 2013).

In general, IC50 refers to the point on the concentration scale where inhibition reaches its midpoint. One may read the Papp A→B as how fast a substance crosses the layer from the apical side.

Series [1] has as its target T1, Beta-secretase 1 (Homo sapiens, UniProt P56817). As to the kind of experiment: Inhibition of BACE1 (unknown origin) by Alpha screen assay.
The target in series [2] is T1, Beta-secretase 1. As to the kind of experiment: Inhibition of recombinant BACE1 (unknown origin) expressed in Escherichia coli using biotinylated APP swidesh mutant as substrate incubated for 20 mins prior to substrate addition measured after 3 hrs by fluorescence polarization assay.
The nature of series [3]: Apparent permeability across apical to basolateral side in MDCK cells expressing MDR1 at 5 uM after 120 mins by LC/MS/MS analysis. The format is ADME, cell-based, Canis lupus familiaris. The note with it: dog.
The next series has as its target Cathepsin D (Homo sapiens, UniProt P07339). As to the kind of experiment: Inhibition of cathepsin-D (unknown origin) after 110 mins by fluorescence polarization assay. Background: Fluorescence polarisation rises when a labelled molecule tumbles more slowly, as on binding a larger partner.

T1 sequence (P56817 whole entry): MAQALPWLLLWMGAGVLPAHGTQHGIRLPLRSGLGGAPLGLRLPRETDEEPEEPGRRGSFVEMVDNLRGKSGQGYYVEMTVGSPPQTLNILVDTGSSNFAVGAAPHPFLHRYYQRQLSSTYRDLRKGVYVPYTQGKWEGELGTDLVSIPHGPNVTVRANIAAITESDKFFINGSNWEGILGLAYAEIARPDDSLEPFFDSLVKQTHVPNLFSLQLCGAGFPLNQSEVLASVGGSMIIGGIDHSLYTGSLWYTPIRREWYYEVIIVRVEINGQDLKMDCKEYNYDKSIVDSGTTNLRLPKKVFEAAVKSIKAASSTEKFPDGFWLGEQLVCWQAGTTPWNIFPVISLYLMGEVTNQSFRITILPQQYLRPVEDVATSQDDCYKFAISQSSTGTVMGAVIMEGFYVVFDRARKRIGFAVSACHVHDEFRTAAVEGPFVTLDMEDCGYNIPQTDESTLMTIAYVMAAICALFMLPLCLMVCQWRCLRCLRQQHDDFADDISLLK
Cathepsin D, sequence (P07339 65-162 limits assumed): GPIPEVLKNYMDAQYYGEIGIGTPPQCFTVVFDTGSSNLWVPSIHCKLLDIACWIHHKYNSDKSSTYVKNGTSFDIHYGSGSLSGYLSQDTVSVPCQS
Cathepsin D, sequence (P07339 169-412 limits assumed): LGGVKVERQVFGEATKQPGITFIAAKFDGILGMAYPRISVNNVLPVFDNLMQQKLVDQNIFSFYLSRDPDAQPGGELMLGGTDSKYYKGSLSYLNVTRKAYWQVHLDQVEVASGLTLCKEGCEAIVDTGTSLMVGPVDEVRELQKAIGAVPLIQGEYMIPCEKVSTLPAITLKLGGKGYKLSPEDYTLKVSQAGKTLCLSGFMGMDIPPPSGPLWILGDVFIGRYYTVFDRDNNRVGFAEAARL

In the case of `CC1(C)Cc2cc(Cl)ccc2C(N[C@H](Cc2ccccc2)C(=O)O)=N1`, on Beta-secretase 1 [1], the IC50 stood at 264000 nM.

The compound `C#Cc1cscc1CC(NC1=NC(C)(C)Cc2cc(Cl)ccc21)C(=O)O` (stereo not drawn) returned a concentration for half-maximal inhibition (IC50) against Beta-secretase 1 [1] of 760 nM.

On to `CCc1cscc1CC(NC1=NC(C)(C)Cc2cc(Cl)ccc21)C(=O)O` (stereo not drawn), for which the IC50 on Beta-secretase 1 [1] was 630 nM.

In the case of `CC1(C)Cc2cc(Cl)ccc2C(NC(Cc2ccsc2)C(=O)O)=N1` (stereo not drawn), the IC50 on Beta-secretase 1 [1] is 2900 nM.

At Beta-secretase 1 [1], `CC1(C)Cc2cc(Cl)ccc2C(NC(Cc2cscc2CCC2CC2)C(=O)O)=N1` (stereo not drawn) gave an IC50 of 570 nM.

For `CC1(C)Cc2cc(Cl)ccc2C(NC(Cc2cscc2-c2cc[nH]n2)C(=O)O)=N1` (stereo not drawn), inhibition against Beta-secretase 1 [1] was half-maximal at 1260 nM (IC50).

As to `CC1(C)Cc2cc(Cl)ccc2C(NC(Cc2cscc2-c2ncco2)C(=O)O)=N1` (stereo not drawn), it took 820 nM to reach half-maximal inhibition on Beta-secretase 1 [1] (IC50).

In the case of `CC#Cc1cscc1CC(NC1=NC(C)(C)Cc2cc(Cl)ccc21)C(=O)O` (stereo not drawn), the IC50 at Beta-secretase 1 [1] is 510 nM.

Compound `CC1(C)Cc2cc(Cl)ccc2C(NC(Cc2sccc2Br)C(=O)O)=N1` (stereo not drawn) returned an IC50 against Beta-secretase 1 [1] of 710 nM.

For `CC1(C)Cc2cc(Cl)ccc2C(NC(Cc2ccsc2Br)C(=O)O)=N1` (stereo not drawn), the IC50 against Beta-secretase 1 [1] stood at 9500 nM.

`CC1(C)Cc2cc(Cl)ccc2C(NC(Cc2cscc2-c2cn[nH]c2)C(=O)O)=N1` (stereo not drawn): the IC50 against Beta-secretase 1 [1] is 450 nM.

As to `CCCc1scc(-c2cn[nH]c2)c1CC(NC1=NC(C)(C)Cc2cc(Cl)ccc21)c1nccc(=O)[nH]1` (stereo not drawn), the IC50 was 40000 nM at Beta-secretase 1 [2], above 30000 nM against Cathepsin D and 406 nM at Beta-secretase 1 [1]. For the same compound, the Papp A→B at 2 h, 5 µM in series [3] is 10 ×10⁻⁶ cm/s.

`CC1(C)Cc2cc(Cl)ccc2C(NC(Cc2cscc2Br)C(=O)O)=N1` (stereo not drawn) returned a 50% inhibitory concentration (IC50) at Beta-secretase 1 [1] of 310 nM.

On Beta-secretase 1 [1], `Cn1cc(-c2cscc2CC(NC2=NC(C)(C)Cc3cc(Cl)ccc32)C(=O)O)cn1` (stereo not drawn) registered an IC50 of 1090 nM.

For `CC1(C)Cc2cc(Cl)ccc2C(NC(Cc2cscc2-c2ccncc2)C(=O)O)=N1` (stereo not drawn), at Beta-secretase 1 [1], inhibition was half-maximal at 1850 nM (IC50).

For the compound `CCCc1scc(-c2cn[nH]c2)c1CC(NC1=NC(C)(C)Cc2cc(Cl)ccc21)C(=O)O` (stereo not drawn), the IC50 at Beta-secretase 1 [2] was 400 nM; against Cathepsin D it was above 30000 nM; against Beta-secretase 1 [1], 8 nM.

The compound `CCCc1cscc1CC(NC1=NC(C)(C)Cc2cc(Cl)ccc21)C(=O)O` (stereo not drawn) showed an IC50 at Beta-secretase 1 [1] of 610 nM.

`CC1(C)Cc2cc(Cl)ccc2C(NC(Cc2cscc2C2CC2)C(=O)O)=N1` (stereo not drawn) registered an IC50 at Beta-secretase 1 [1] of 2430 nM.
